Source: publication PMC9911596 (Nature Communications, 2023)
Numbering of substitutions follows the chain as printed.

Legend:
[1] = target: T1, Vtc1/Vtc3/Vtc4 complex (VTC complex) (Saccharomyces cerevisiae, UniProt P47075+Q02725, P47075:K300A/P47075:R302A/P47075:K320A); experiment: polyP synthesis, TBE-PAGE; format: biochemical; conditions: activator; 15 mM ATP, 10 mM MgCl2, 1 mM MnCl2, 0.5 mM pyrophosphate, 27 °C; TTM cleft (second site) mutant
T1 construct: full-length subunits co-expressed in Expi293F; Vtc1 C-terminal HA, Vtc3 N-terminal 3xFlag, Vtc4 C-terminal 2xStrep; detergent-purified; 3:1:1 pentamer; with Vacuolar transporter chaperone complex subunit 1
T1 sequence (P47075 1-721 K300A/R302A/K320A): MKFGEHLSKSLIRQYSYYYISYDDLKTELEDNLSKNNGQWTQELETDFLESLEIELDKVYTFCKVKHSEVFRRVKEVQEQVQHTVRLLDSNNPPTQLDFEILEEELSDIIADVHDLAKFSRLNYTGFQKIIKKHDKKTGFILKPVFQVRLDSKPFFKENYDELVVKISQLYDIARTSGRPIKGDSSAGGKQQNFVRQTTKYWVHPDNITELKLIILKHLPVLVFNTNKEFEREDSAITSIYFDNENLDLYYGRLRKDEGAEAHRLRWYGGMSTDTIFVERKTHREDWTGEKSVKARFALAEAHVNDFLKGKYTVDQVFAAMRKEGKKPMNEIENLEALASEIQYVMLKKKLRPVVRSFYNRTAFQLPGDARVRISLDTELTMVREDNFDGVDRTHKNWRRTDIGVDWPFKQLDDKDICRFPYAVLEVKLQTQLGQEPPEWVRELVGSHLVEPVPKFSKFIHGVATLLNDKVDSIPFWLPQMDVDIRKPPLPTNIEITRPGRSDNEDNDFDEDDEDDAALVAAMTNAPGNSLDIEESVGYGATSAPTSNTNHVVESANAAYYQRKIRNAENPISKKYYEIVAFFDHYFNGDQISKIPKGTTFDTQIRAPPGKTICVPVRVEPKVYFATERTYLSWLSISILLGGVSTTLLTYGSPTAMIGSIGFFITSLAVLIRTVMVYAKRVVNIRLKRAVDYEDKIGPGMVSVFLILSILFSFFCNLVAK
T1 sequence (Q02725 1-835): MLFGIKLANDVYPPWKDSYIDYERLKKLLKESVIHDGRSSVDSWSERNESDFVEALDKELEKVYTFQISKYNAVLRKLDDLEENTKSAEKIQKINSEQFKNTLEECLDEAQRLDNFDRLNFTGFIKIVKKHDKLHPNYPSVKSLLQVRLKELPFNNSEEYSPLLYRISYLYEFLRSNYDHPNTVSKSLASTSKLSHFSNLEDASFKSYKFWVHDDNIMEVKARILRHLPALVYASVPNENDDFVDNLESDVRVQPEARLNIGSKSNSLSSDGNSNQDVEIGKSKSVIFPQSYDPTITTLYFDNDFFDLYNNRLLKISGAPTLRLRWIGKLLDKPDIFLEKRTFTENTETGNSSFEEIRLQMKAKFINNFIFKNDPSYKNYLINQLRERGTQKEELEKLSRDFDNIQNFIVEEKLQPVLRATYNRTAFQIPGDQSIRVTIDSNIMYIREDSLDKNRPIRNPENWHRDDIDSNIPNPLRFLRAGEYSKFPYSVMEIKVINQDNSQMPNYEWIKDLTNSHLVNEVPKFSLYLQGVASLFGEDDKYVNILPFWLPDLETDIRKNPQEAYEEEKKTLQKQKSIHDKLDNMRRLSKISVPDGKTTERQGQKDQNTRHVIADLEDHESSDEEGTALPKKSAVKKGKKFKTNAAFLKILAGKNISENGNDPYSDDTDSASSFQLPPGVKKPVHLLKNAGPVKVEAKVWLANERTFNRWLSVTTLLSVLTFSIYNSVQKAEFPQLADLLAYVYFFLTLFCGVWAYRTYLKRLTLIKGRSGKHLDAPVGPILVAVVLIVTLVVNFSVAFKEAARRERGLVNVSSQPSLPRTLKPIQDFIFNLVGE
T1 sequence (P40046 2-129 partner): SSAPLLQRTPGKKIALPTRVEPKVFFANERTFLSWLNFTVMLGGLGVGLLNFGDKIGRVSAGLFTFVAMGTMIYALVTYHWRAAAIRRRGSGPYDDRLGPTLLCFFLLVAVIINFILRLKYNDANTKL

[2] = target: T2, Vtc1/Vtc3/Vtc4 complex (VTC complex) (Saccharomyces cerevisiae, UniProt P47075+Q02725); experiment: polyP synthesis, TBE-PAGE and DAPI; smFRET; format: biochemical; conditions: activator; 15 mM ATP, 10 mM MgCl2, 1 mM MnCl2, 0.5 mM pyrophosphate, ATP regeneration, 27 °C, 4 h; up to 10 mM InsP6; SPX domain of Vtc4 as sensor
T2 construct: full-length subunits co-expressed in Expi293F; Vtc1 C-terminal HA, Vtc3 N-terminal 3xFlag, Vtc4 C-terminal 2xStrep; detergent-purified; 3:1:1 pentamer; with Vacuolar transporter chaperone complex subunit 1
T2 sequence (P47075 1-721): T1 sequence (P47075 1-721 K300A/R302A/K320A) with A300K, A302R, A320K
T2 sequence (Q02725 1-835): T1 sequence (Q02725 1-835)
T2 sequence (P40046 2-129 partner): T1 sequence (P40046 2-129 partner)

O=P(O)(O)O[C@H]1[C@H](OP(=O)(O)O)[C@@H](OP(=O)(O)O)[C@H](OP(=O)(O)O)[C@@H](OP(=O)(O)O)[C@H]1OP(=O)(O)O [InsP6]
polyP synthesis, TBE-PAGE [1]: had little impact on InsP6-stimulated polyP synthesis by VTC complex | polyP synthesis, TBE-PAGE and DAPI; smFRET [2]: harbors polyP polymerase activity and that synthesizes polyP in an InsP6 dose-dependent manner
